Data on five molecules can be found in publication PMC9013689, “Development of reconstructed intestinal micronucleus cytome (RICyt) assay in 3D human gut model for genotoxicity assessment of orally ingested substances” (Archives of Toxicology, 2022).

“And” between values parts separate entries of the source, which are not always exact repeats. Identical values can stand only once. Counter-ions that a name gives are not always drawn. Like-named read-outs stand apart in the source and are kept apart here. Where only a bound is given, the exact number is not on record here.

Data set [1] relates to 3D EpiIntestinal™ tissue. As to conditions: human, 10 days. As for the experimental part: (§1) Test compound stock solutions were prepared in DMSO (D161802, Sigma Aldrich, St Louis, MO). For the 3D tissues, dilutions were made in complete culture media yielding ≤ 0.1% DMSO final concentration. Media containing 0.1% DMSO (i.e. without test article) were applied to tissues to serve as the vehicle control. All 3D tissues were treated apically every alternate day (from day 0–6) and daily (from day 7–9), while basolateral wells contain untreated culture media to support the tissue growth. TK6 cells were exposed for 24 h with the test materials prior to harvest.
(§2) 3D tissues were dissociated using human tumour dissociation kit (Miltenyl Biotec, Bergisch Gladbach, Germany), as per manufacturers’ instruction, with minor modifications. Individual 3D tissues cultured on microporous membranes were excised from the culture inserts and incubated for 15 min in cell recovery solution (Corning, Tewksbury, MA). The tissues were subsequently peeled off from the membrane with fine point forceps under stereo microscope (Leica Microsystems, Wetzlar, Germany). The peeled tissues were placed into gentleMACS C-tube (Miltenyi Biotech, Bergisch Gladbach, Germany) containing the enzyme mix described in the kit’s protocol. The tubes were then transferred into a gentleMACS octo dissociator with heater (Miltenyi Biotech, Bergisch Gladbach, Germany), and subjected to one cycle of ‘37C_m_LPDK_1’ program. Upon completion, the cell suspension was centrifuged at 1000 rpm for 5 min; the supernatant was removed and the pellet was resuspended in 2 mL of Hanks Balanced Salts Solution (HBSS). […] The proliferation of the 3D tissue was estimated through calculation of population doubling based on the dissociated cell number at the day 1, 6 and 11 after tissue revival.

Data set [2] has as its system 3D EpiIntestinal™ tissue. In words: Reconstructed intestine micronucleus cytome (RICyt) assay.
Text: EpiIntestinal™ tissue (SMI-200-FT v2.0) was purchased from MatTek Corporation® (Ashland, MA). The EpiIntestinal™ construct is a differentiated 3D tissue model that consists of intestinal villi and crypts topology resembling the normal human small intestine. […] The mature tissues are shipped sealed in 24-well agar-plugged plates to the designated laboratory (in this instance, Singapore). Upon receipt, the tissues are revived overnight in fresh SMI-100-MM before use in assays.
as §1
as §2, with “revival. The cells were then (1) fixed for micronuclei scoring or (2) processed for subsequent experimentation.” for “revival.”
Tissues were exposed to test substances, harvested and dissociated into single cell suspension as described above. Cell suspension samples were divided equally; half of the cell suspension sample was fixed in Carnoy’s solution with 3 fixation steps in methanol/acetic acid […], supplemented with formaldehyde at 1st fixation. The cell suspension was aged at least overnight at 4 °C to improve the quality of fixed cells. The remaining cells were incubated with 4% formaldehyde for 15 min, rinsed twice with 1 × PBS and stored in 4 °C. […] One thousand total cells were scored per microtissue to determine the frequency of MN and cytome. The percentage of MN and cytome at each concentration of test chemical was compared with the solvent control. The results were generated from three independent experiments. Each experiment consisted of a single microtissue per dose.

Data set [3] has as its system TK6 cells. Particulars: 24 h-exposure, dose not printed (Fig. 6b).
The test system of data set [4] is 3D EpiIntestinal™ tissue. In words: Cytokinesis-blocked micronucleus analysis (CBMN) in EpiIntestinal™ tissue. Format: cell-based, human. Particulars: 6 μg/ml, apical and basolateral, 10 days. As for the experimental part:
The CBMN assay was conducted according to a previously published procedure (Fenech and Morley [1985b]). Briefly, cytochalasin B (5474, Tocris Bioscience, Bristol, UK, 6 μg/ml) was applied to the 3D EpiIntestinal™ in vitro tissues every other day, to the apical and to the basolateral compartments. […] The cell suspension was stored in fixative at 4 °C overnight, stained with acridine orange (1:100 dilution in 1 × PBS, A1301, Invitrogen; Thermo Fisher Scientific, Waltham, MA) and scored under fluorescence microscopy (Zeiss Axioimager, equipped with triple band excitation fluorescence filter set: DAPI, FITC and Texas red). Scoring was performed following the criteria developed by Fenech et al. (Fenech et al. [2003], [2007]). One thousand total cells per microtissue were scored to determine the percentage of cells with one (mononucleated) or two nuclei (binucleated). The results were generated from three independent experiments. Each experiment consisted of a single microtissue per dose.

Data set [5] deals with TK6 cells. As to conditions: 24 h, comparable across all concentrations tested; DMSO control 0.7%.
Setting [6] is: 50 ng/ml, apical, 10 days, Carnoy's fixative, mean ± SE.
Where [7] appears, read: 250 ng/ml, apical, 10 days, Carnoy's fixative, mean ± SE.
Setting [8] is: 500 ng/ml, apical, 10 days, Carnoy's fixative, mean ± SE.

With `c1ccc2c(c1)cc1ccc3cccc4ccc2c1c34` [benzo(a)pyrene], the “doses with significant decreases in cell population” value in the data set with 3D EpiIntestinal™ tissue [1] was at least 6.25 µg/mL. In addition, in the data set on 3D EpiIntestinal™ tissue [2] (human, 10 days, 6.25 μg/ml), the “BN, binucleated cells” value stood at 1.30 ± 0.12%; the “CC, condensed chromatin” value is given as 0.13 ± 0.03%; the “KL, karyolysis” value was 0.60 ± 0.25%; the “KR, karyorrhexis” value is recorded as 5.59 ± 0.41 %. In addition, in the data set on 3D EpiIntestinal™ tissue [2] (human, 10 days, 6.25 μg/ml), the “Mono, mononucleated cells (basal and differentiated)” value (“Mono … (basal and differentiated)” below) was 89.96 ± 0.56%; the “PY, pyknosis” value was 0.23 ± 0.03%. In addition, in the data set on 3D EpiIntestinal™ tissue [2] (human, 10 days, 12.5 μg/ml), the “BN, binucleated cells” value worked out at 1.80 ± 0.38%; the “CC, condensed chromatin” value was found to be 0.37 ± 0.22%; the “KL, karyolysis” value is given as 0.63 ± 0.23%; the “KR, karyorrhexis” value is 7.27 ± 1.07%. Also, in the data set on 3D EpiIntestinal™ tissue [2] (human, 10 days, 12.5 μg/ml), the “Mono … (basal and differentiated)” value came to 85.87 ± 1.30%; the “PY, pyknosis” value is listed as 0.40 ± 0.21%. Further, in the data set with 3D EpiIntestinal™ tissue [2] (human, 10 days, 25 μg/ml), the “BN, binucleated cells” value stood at 0.99 ± 0.29%; the “CC, condensed chromatin” value turned out to be 0.20 ± 0.10%; the “KL, karyolysis” value worked out at 0.40 ± 0.20%; the “KR, karyorrhexis” value was 6.24 ± 0.06 %. In the data set with 3D EpiIntestinal™ tissue [2] (human, 10 days, 25 μg/ml), the “Mono … (basal and differentiated)” value amounted to 88.11 ± 1.01%; the “PY, pyknosis” value amounted to 0.56 ± 0.33%.
In turn, `CO[C@@]12[C@H](COC(N)=O)C3=C(C(=O)C(C)=C(N)C3=O)N1C[C@@H]1N[C@@H]12` [mitomycin C] returned a population decline in the data set on TK6 cells [3] of 55%.
Consider `C=C1[C@@H](C)[C@H]2[C@H](Cc3ccccc3)NC(=O)[C@]23OC(=O)/C=C/[C@H](O)CCC[C@@H](C)C/C=C/[C@H]3[C@@H]1O` [Cyt-B, cytochalasin B], for which, in the data set with 3D EpiIntestinal™ tissue [4], the “cells containing BN (binucleated)” value is 8.1% and ~ 8.1%; the mononuclear cells was found to be 91.9%.
Turning to `CC[C@]1(O)C[C@@H]2CN(CCc3c([nH]c4ccccc34)[C@@](C(=O)OC)(c3cc4c(cc3OC)N(C)[C@H]3[C@@](O)(C(=O)OC)[C@H](OC(C)=O)[C@]5(CC)C=CCN6CC[C@]43[C@@H]65)C2)C1` [vinblastine sulphate], the “doses with significant decreases in cell population” value in the data set on 3D EpiIntestinal™ tissue [1] was found to be 0.5 µg/mL. In the data set with 3D EpiIntestinal™ tissue [2] (setting [6]), the “BN, binucleated cells” value stood at 0.77 ± 0.12%; the “Buds, nuclear buds” value came to 0.63 ± 0.29%; the “CC, condensed chromatin” value was found to be 0.07 ± 0.03%; the “KL, karyolysis” value was determined as 1.23 ± 0.74%. Besides, in the data set on 3D EpiIntestinal™ tissue [2] (setting [6]), the “KR, karyorrhexis” value was 4.90 ± 0.63%; the “MN, micronuclei” value is on record as 2.71 ± 0.44%; the “Mono … (basal and differentiated)” value was found to be 89.09 ± 1.25%; the “PY, pyknosis” value was 0.6 ± 0.12%. Further, in the data set with 3D EpiIntestinal™ tissue [2] (setting [7]), the “BN, binucleated cells” value is 0.86 ± 0.38%; the “Buds, nuclear buds” value was 0.53 ± 0.28%; the “CC, condensed chromatin” value worked out at 0.15 ± 0.13%; the “KL, karyolysis” value was 1.82 ± 1.01%. Further, in the data set on 3D EpiIntestinal™ tissue [2] (setting [7]), the “KR, karyorrhexis” value is recorded as 4.75 ± 1.30%; the “MN, micronuclei” value is 3.11 ± 0.36 %; the “Mono … (basal and differentiated)” value worked out at 87.14 ± 2.07%; the “PY, pyknosis” value was determined as 1.66 ± 0.49%. Moreover, in the data set on 3D EpiIntestinal™ tissue [2] (setting [8]), the “BN, binucleated cells” value is given as 0.94 ± 0.49%; the “Buds, nuclear buds” value came out at 0.50 ± 0.16%; the “CC, condensed chromatin” value amounted to 0.17 ± 0.02 %; the “KL, karyolysis” value is given as 1.79 ± 1.05%. Also, in the data set on 3D EpiIntestinal™ tissue [2] (setting [8]), the “KR, karyorrhexis” value is on record as 6.48 ± 2.52%; the “MN, micronuclei” value came to 3.46 ± 0.16 %; the “Mono … (basal and differentiated)” value stood at 84.89 ± 3.06%; the “PY, pyknosis” value worked out at 1.77 ± 0.77%. In addition, the “frequency of pyknotic and karyolytic cells” value in the data set on 3D EpiIntestinal™ tissue [2] (apical, 10 days) is on record as “increased”.
Turning to `[H]/N=C(/N)N/C(=N/[H])NCCc1ccccc1` [phenformin HCl, Phenformin HCl], the “prevalence of MN in TK6 cells” value in the data set with TK6 cells [5] is on record as ~ 0.6%. Further, the “loss of viable cell populations” value in the data set on 3D EpiIntestinal™ tissue [1] (62.5 µg/ml) is 40%; in the data set with 3D EpiIntestinal™ tissue [1] (125 µg/ml) it was 45%; with 3D EpiIntestinal™ tissue [1] (250 µg/ml), 60%. Also, in the data set on 3D EpiIntestinal™ tissue [2], the RICyt assay outcome is “inactive”. Also, the “prevalence of MN” value in the data set on 3D EpiIntestinal™ tissue [2] (10 days' exposure, DMSO control […]) was ~ 1%.
